Results published in patent US20200231638A1, “STABILIZED ANTI-MICROBIAL PEPTIDES” (priority 2015, published 2020).
Where two headings read alike, the source gives them in different places. Bridge positions count the residues as written; N and C are the ends. Square brackets hold non-standard residues; d marks the D form. Peptide text beside a SMILES is read from it. S5 = C=CCCC[C@](C)(N)C(=O)O; Nle = CCCC[C@H](N)C(=O)O

Experiments:
E. coli = type: cell-based, Escherichia coli
Description: (§1) Antimicrobial Activity Assay:
(§2) The following microbroth dilution protocol was adapted to determine the minimum inhibitory concentration (MIC) of each peptide. First, Mueller-Hinton broth (MHB) was passed through an anion exchange column to remove polyanionic species and generate refined MHB. […] Briefly, bacterial cells was grown overnight in refined MHB at 37° C. and then diluted and allowed to grow again for several hours. Serial dilutions of peptide stocks in water (10 μl) were prepared using clear round-bottom polypropylene 96-well plates. Then 90 μl of bacteria in refined MHB was added to give a final inoculum of 5×10^5 CFU/ml. The plates were then covered with porous tape to reduce evaporation, and incubated for 20-24 hours at 37° C. The MIC is the minimum peptide concentration at which no visible growth was observed.

B. cereus = type: cell-based, Bacillus cereus
Description: as §1, §2

S. aureus = type: cell-based, Staphylococcus aureus
Description: as §1, §2

P. aeruginosa = type: cell-based, Pseudomonas aeruginosa
Description: as §1, §2

human red blood cells = type: cell-based
Description: FIG. 5 is a series of line graphs depicting the hemolytic activity of magainin II and stapled analogues. Peptides were incubated with 1% (v/v) human red blood cells in phosphate-buffered solution for 1 hour at 37° C. and then the supernatant was isolated and the amount of hemoglobin released was measured at 540 nm. % hemolysis was calculated relative to an untreated control.
Hemolytic Activity Assay:
For the determination of hemolytic activity, human blood samples were centrifuged to isolate red blood cells (RBCs), which are then washed and suspended in phosphate-buffered saline to yield a 1% (v/v) suspension. The suspension was then added to serial dilutions of peptide stocks in water in clear round-bottom polypropylene 96-well plates and the plates were incubated for 1 hour at 37° C. After incubation, the plates were centrifuged and the supernatant was isolated to determine the amount of hemoglobin released using a spectrophotometer (570 nm), according to the equation: % Hemolysis=(Treated Absorbance−Untreated Control Absorbance)/(1% Triton-X100 Treated Absorbance−Untreated Control Absorbance). The minimum hemolytic concentration (MHC) is the peptide concentration at which there is less than 1% hemoglobin release.

MIC E. coli (E. coli) [µg/mL] | MIC B. cereus (B. cereus) [µg/mL] | MIC S. aureus (S. aureus) [µg/mL] | MIC P. aeruginosa (P. aeruginosa) [µg/mL] | SMILES | % Hemolysis at 25 μg/ml (human red blood cells; red cells of human, 1 h, 25) [%] | hemolytic activity at concentrations 8-fold higher than its MIC (human red blood cells) | % Hemolysis at 25 μg/ml (human red blood cells)
3.1 | 12.5 | >50 | 50 | CCCC[C@H](NC(=O)[C@@H](NC(=O)[C@H](CCC(=O)O)NC(=O)CNC(=O)[C@@H](NC(=O)[C@H](Cc1ccccc1)NC(=O)[C@H](C)NC(=O)[C@H](CCCCN)NC(=O)CNC(=O)[C@H](Cc1ccccc1)NC(=O)[C@H](CCCCN)NC(=O)[C@H](CCCCN)NC(=O)[C@H](C)NC(=O)[C@H](CO)NC(=O)[C@H](Cc1c[nH]cn1)NC(=O)[C@H](CC(C)C)NC(=O)[C@]1(C)CCCC=CCCC[C@](C)(N)C(=O)N[C@@H]([C@@H](C)CC)C(=O)NCC(=O)N[C@@H](CCCCN)C(=O)N1)C(C)C)[C@@H](C)CC)C(=O)N[C@@H](CC(N)=O)C(=O)N[C@@H](CO)C(N)=O [Mag(i + 4)0, XIGKXLHSAKKFGKAFVGEIBNS] (H-[S5]IGK[S5]LHSAKKFGKAFVGEI[Nle]NS-NH2; staple 1-5) | 4.8 | – | –
1.6 | 25 | 50 | 3.1 | CCCC[C@H](NC(=O)[C@]1(C)CCCC=CCCC[C@](C)(NC(=O)[C@H](C)NC(=O)[C@H](CCCCN)NC(=O)CNC(=O)[C@H](Cc2ccccc2)NC(=O)[C@H](CCCCN)NC(=O)[C@H](CCCCN)NC(=O)[C@H](CCCCN)NC(=O)[C@H](CO)NC(=O)[C@H](Cc2c[nH]cn2)NC(=O)[C@]2(C)CCCC=CCCC[C@](C)(NC(=O)CN)C(=O)NCC(=O)N[C@@H](CCCCN)C(=O)N[C@@H](Cc3ccccc3)C(=O)N2)C(=O)N[C@@H](C(C)C)C(=O)NCC(=O)N[C@@H](CCC(=O)O)C(=O)N1)C(=O)N[C@@H](CC(N)=O)C(=O)N[C@@H](CO)C(N)=O [Mag(i + 4)1, 15(A9K), GXGKFXHSKKKFGKAXVGEXBNS] (H-G[S5]GKF[S5]HSKKKFGKA[S5]VGE[S5][Nle]NS-NH2; staple 2-6, 16-20) | 2.4 | little hemolytic activity | –
3.1 | 50 | >50 | 12.5 | CCCC[C@H](NC(=O)[C@]1(C)CCCC=CCCC[C@](C)(NC(=O)[C@H](C)NC(=O)[C@H](CCCCN)NC(=O)CNC(=O)[C@H](Cc2ccccc2)NC(=O)[C@H](CCCCN)NC(=O)[C@H](CCCCN)NC(=O)[C@H](CCCCN)NC(=O)[C@H](Cc2c[nH]cn2)NC(=O)[C@H](Cc2c[nH]cn2)NC(=O)[C@]2(C)CCCC=CCCC[C@](C)(NC(=O)CN)C(=O)NCC(=O)N[C@@H](CCCCN)C(=O)N[C@@H](Cc3ccccc3)C(=O)N2)C(=O)N[C@@H](C(C)C)C(=O)N[C@@H](Cc2c[nH]cn2)C(=O)N[C@@H](CCC(=O)O)C(=O)N1)C(=O)N[C@@H](CCC(=O)O)C(=O)N[C@@H](CO)C(N)=O [Mag(i + 4)1, 15(S8H, A9K, G18H, N21E)] (H-G[S5]GKF[S5]HHKKKFGKA[S5]VHE[S5][Nle]ES-NH2; staple 2-6, 16-20; N-terminus assumed) | 4.2 | – | –
3.1 | 25 | >50 | 12.5 | CCCC[C@H](NC(=O)[C@@H](NC(=O)[C@H](CCC(=O)O)NC(=O)CNC(=O)[C@@H](NC(=O)[C@H](Cc1ccccc1)NC(=O)[C@H](C)NC(=O)[C@H](CCCCN)NC(=O)CNC(=O)[C@H](Cc1ccccc1)NC(=O)[C@H](CCCCN)NC(=O)[C@H](CCCCN)NC(=O)[C@H](C)NC(=O)[C@H](CO)NC(=O)[C@H](Cc1c[nH]cn1)NC(=O)[C@]1(C)CCCC=CCCC[C@](C)(NC(=O)CN)C(=O)NCC(=O)N[C@@H](CCCCN)C(=O)N[C@@H](Cc2ccccc2)C(=O)N1)C(C)C)[C@@H](C)CC)C(=O)N[C@@H](CC(N)=O)C(=O)N[C@@H](CO)C(N)=O [Mag(i + 4)1, GXGKFXHSAKKFGKAFVGEIBNS] (H-G[S5]GKF[S5]HSAKKFGKAFVGEI[Nle]NS-NH2; staple 2-6) | – | – | –
1.6 | 3.1 | 3.1 | 3.1 | CCCC[C@H](NC(=O)[C@]1(C)CCCC=CCCC[C@](C)(NC(=O)[C@H](C)NC(=O)[C@H](CCCCN)NC(=O)CNC(=O)[C@H](Cc2ccccc2)NC(=O)[C@H](CCCCN)NC(=O)[C@H](CCCCN)NC(=O)[C@H](CCCCN)NC(=O)[C@H](CO)NC(=O)[C@]2(C)CCCC=CCCC[C@](C)(NC(=O)[C@@H](NC(=O)CN)[C@@H](C)CC)C(=O)N[C@@H](CCCCN)C(=O)N[C@@H](Cc3ccccc3)C(=O)N[C@@H](CC(C)C)C(=O)N2)C(=O)N[C@@H](C(C)C)C(=O)NCC(=O)N[C@@H](CCC(=O)O)C(=O)N1)C(=O)N[C@@H](CC(N)=O)C(=O)N[C@@H](CO)C(N)=O [Mag(i + 4)2, 15(A9K), GIXKFLXSKKKFGKAXVGEXBNS] (H-GI[S5]KFL[S5]SKKKFGKA[S5]VGE[S5][Nle]NS-NH2; staple 3-7, 16-20) | – | – | –
3.1 | 25 | 50 | 12.5 | CCCC[C@H](NC(=O)[C@]1(C)CCCC=CCCC[C@](C)(NC(=O)[C@H](C)NC(=O)[C@H](CCCCN)NC(=O)CNC(=O)[C@H](Cc2ccccc2)NC(=O)[C@H](CCCCN)NC(=O)[C@H](CCCCN)NC(=O)[C@H](Cc2c[nH]cn2)NC(=O)[C@H](CO)NC(=O)[C@]2(C)CCCC=CCCC[C@](C)(NC(=O)[C@H](CCCCN)NC(=O)CN)C(=O)N[C@@H](CCCCN)C(=O)N[C@@H](Cc3ccccc3)C(=O)N[C@@H](CC(C)C)C(=O)N2)C(=O)N[C@@H](C(C)C)C(=O)NCC(=O)N[C@@H](CCC(=O)O)C(=O)N1)C(=O)N[C@@H](CCC(=O)O)C(=O)N[C@@H](CO)C(N)=O [Mag(i + 4)2, 15(I2K, A9H, N21E)] (H-GK[S5]KFL[S5]SHKKFGKA[S5]VGE[S5][Nle]ES-NH2; staple 3-7, 16-20) | 1.8 | – | –
3.1 | 12.5 | 25 | 3.1 | CCCC[C@H](NC(=O)[C@]1(C)CCCC=CCCC[C@](C)(NC(=O)[C@H](C)NC(=O)[C@H](CCCCN)NC(=O)CNC(=O)[C@H](Cc2ccccc2)NC(=O)[C@H](CCCCN)NC(=O)[C@H](CCCCN)NC(=O)[C@H](CCCCN)NC(=O)[C@H](CO)NC(=O)[C@]2(C)CCCC=CCCC[C@](C)(NC(=O)[C@H](CCCCN)NC(=O)CN)C(=O)N[C@@H](CCCCN)C(=O)N[C@@H](Cc3ccccc3)C(=O)N[C@@H](CC(C)C)C(=O)N2)C(=O)N[C@@H](C(C)C)C(=O)N[C@@H](Cc2c[nH]cn2)C(=O)N[C@@H](CCC(=O)O)C(=O)N1)C(=O)N[C@@H](CC(N)=O)C(=O)N[C@@H](CO)C(N)=O [Mag(i + 4)2, 15(I2K, A9K, G18H)] (H-GK[S5]KFL[S5]SKKKFGKA[S5]VHE[S5][Nle]NS-NH2; staple 3-7, 16-20) | 2.2 | – | –
3.1 | 6.2 | 12.5 | 6.2 | CCCC[C@H](NC(=O)[C@]1(C)CCCC=CCCC[C@](C)(NC(=O)[C@H](C)NC(=O)[C@H](CCCCN)NC(=O)CNC(=O)[C@H](Cc2ccccc2)NC(=O)[C@H](CCCCN)NC(=O)[C@H](CCCCN)NC(=O)[C@H](Cc2c[nH]cn2)NC(=O)[C@H](CO)NC(=O)[C@]2(C)CCCC=CCCC[C@](C)(NC(=O)[C@H](CCCCN)NC(=O)CN)C(=O)N[C@@H](CCCCN)C(=O)N[C@@H](Cc3ccccc3)C(=O)N[C@@H](CC(C)C)C(=O)N2)C(=O)N[C@@H](C(C)C)C(=O)NCC(=O)N[C@@H](CCC(=O)O)C(=O)N1)C(=O)N[C@@H](CC(N)=O)C(=O)N[C@@H](CO)C(N)=O [Mag(i + 4)2, 15(I2X, A9H)] (H-GK[S5]KFL[S5]SHKKFGKA[S5]VGE[S5][Nle]NS-NH2; staple 3-7, 16-20) | 0.6 | – | completely eliminated
6.2 | 12.5 | 25 | 25 | CCCC[C@H](NC(=O)[C@@H](NC(=O)[C@H](CCC(=O)O)NC(=O)CNC(=O)[C@@H](NC(=O)[C@H](Cc1ccccc1)NC(=O)[C@H](C)NC(=O)[C@H](CCCCN)NC(=O)CNC(=O)[C@H](Cc1ccccc1)NC(=O)[C@]1(C)CCCC=CCCC[C@](C)(NC(=O)[C@H](CC(C)C)NC(=O)[C@H](Cc2ccccc2)NC(=O)[C@H](CCCCN)NC(=O)CNC(=O)[C@@H](NC(=O)CN)[C@@H](C)CC)C(=O)N[C@@H](CO)C(=O)N[C@@H](C)C(=O)N[C@@H](CCCCN)C(=O)N1)C(C)C)[C@@H](C)CC)C(=O)N[C@@H](CC(N)=O)C(=O)N[C@@H](CO)C(N)=O [Mag(i + 4)6, GIGKFLXSAKXFGKAFVGEIBNS] (H-GIGKFL[S5]SAK[S5]FGKAFVGEI[Nle]NS-NH2; staple 7-11) | – | – | –
